# System: stably HCV RNA-replicating cell line, AVA5
# Experiment: Antiviral Activity (HCV Replicon Assay)
# Assay type: cell-based
# Details: intracellular HCV RNA levels (blot hybridization, normalized to B-actin RNA) in AVA5 cells (Huh7-derived), compound once daily for three days, read 24 hours after last dose
# Experimental: HCV NS5B Polymerase Assay
# Antiviral activity of the test compounds is assessed (Okuse et al., Antiviral Res. 2005, 65, 23-34) in the stably HCV RNA-replicating cell line, AVA5, derived by transfection of the human hepatoblastoma cell line, Huh7 (Blight et al., Sci. 2000, 290, 1972). Compounds are added to dividing cultures once daily for three days. Media is changed with each addition of compound. Cultures generally start the assay at 30-50% confluence and reach confluence during the last day of treatment. Intracellular HCV RNA levels and cytotoxicity are assessed 24 hours after the last dose of compound.
# Triplicate cultures for HCV RNA levels (on 48-well and 96-well plates) and cytotoxicity (on 96-well plates) are used. A total of six untreated control cultures, and triplicate cultures treated with α-interferon and ribavirin serve as positive antiviral and toxicity controls.
# Intracellular HCV RNA levels are measured using a conventional blot hybridization method in which HCV RNA levels are normalized to the levels of B-actin RNA in each individual culture (Okuse et al., Antivir. Res. 2005, 65, 23-34). Cytotoxicity is measured using a neutral red dye uptake assay (Korba and Gerin, Antivir. Res. 1992, 19, 55). HCV RNA levels in the treated cultures are expressed as a percentage of the mean levels of RNA detected in untreated cultures.
row,SMILES,% Inhibition at 10 μM
1,"CC(O)CC(COCP(=O)(OCOC(=O)C(C)(C)C)OCOC(=O)C(C)(C)C)n1cnc2c(N)ncnc21 (racemic) [Compound 56f, (±)-9-[1-[(Di-tert-butylcarbonyloxymethylphosphonomethoxy)methyl][(3-hydroxy)butyl]adenine]",62%
2,"CC(C)(C)OC(=O)COP(=O)(COCCC(CN)n1cnc2c(N)ncnc21)OCC(=O)OC(C)(C)C (racemic) [Compound 34d, (±)-9-[(1-Aminomethyl)(3-(di-tert-butyloxycarbonylmethylphosphono)methoxy)propyl]-adenine]",60%
3,"CC(C)(C)OC(=O)COP(=O)(COCCC(CCO)n1cnc2c(N)ncnc21)OCC(=O)OC(C)(C)C (racemic) [Compound 34e, (±)-9-[(1-(2-Hydroxy)ethyl)(3-(di-tert-butyloxycarbonylmethylphosphono)methoxy)propyl]-adenine]",41%
4,"CC(C)(C)OC(=O)COP(=O)(COCCC(CO)n1cnc2c(-c3ccsc3)ncnc21)OCC(=O)OC(C)(C)C (racemic) [Compound 76b, (±)-9-[(1-Hydroxymethyl)(3-(di-tert-butyloxycarbonylmethylphosphono)methoxy)propyl]-6-(3-thiophenyl)purine]",18%
5,"CC(C)(C)OC(=O)COP(=O)(COCCC(CO)n1cnc2c(NC3CCCC3)ncnc21)OCC(=O)OC(C)(C)C (racemic) [Compound 73k, (±)-9-[(1-Hydroxymethyl)(3-(di-tert-butyloxycarbonylmethylphosphono)methoxy)propyl]-6-cyclopentylaminopurine]",36%
6,"C=C(CCOCP(=O)(OCC(=O)OC(C)(C)C)OCC(=O)OC(C)(C)C)n1cnc2c(N)ncnc21 [Compound 34h, (±)-9-[(1-Methylene)(3-(di-tert-butyloxycarbonylmethylphosphono)methoxy)propyl]-adenine]",35%
7,"CC(C)(C)OC(=O)COP(=O)(COCCC(CO)n1cnc2c(-c3ccccc3)ncnc21)OCC(=O)OC(C)(C)C (racemic) [Compound 76a, (±)-9-[(1-Hydroxymethyl)(3-(di-tert-butyloxycarbonylmethylphosphono)methoxy)propyl]-6-phenylpurine]",35%
8,"CC(O)C(COCP(=O)(OCC(=O)OC(C)(C)C)OCC(=O)OC(C)(C)C)n1cnc2c(-c3ccccc3)ncnc21 (racemic) [Compound 79a, (±)-9-[(1-Hydroxyethyl)(3-(di-tert-butyloxycarbonylmethylphosphono)methoxy)ethyl]-6-phenylpurine]",48%
